“And” between values parts separate entries of the source, which are not always exact repeats. Equal entries are not always repeated.
How the values were obtained:
Type in all cases: cell-based
320 non-olfactory GPCRs [1] = target: 320 non-olfactory GPCRs (Homo sapiens, UniProt P61073)
320 non-olfactory GPCRs [2] = target: T1, 320 non-olfactory GPCRs (Homo sapiens, UniProt P48960)
T1 construct: expressed in transfected cells; host or cells: HTLA cells

320 non-olfactory GPCRs [3] = target: T2, 320 non-olfactory GPCRs (Homo sapiens, UniProt P0DMS8)
T2 construct: expressed in transfected cells; host or cells: HTLA cells
T2 sequence (P0DMS8 whole entry): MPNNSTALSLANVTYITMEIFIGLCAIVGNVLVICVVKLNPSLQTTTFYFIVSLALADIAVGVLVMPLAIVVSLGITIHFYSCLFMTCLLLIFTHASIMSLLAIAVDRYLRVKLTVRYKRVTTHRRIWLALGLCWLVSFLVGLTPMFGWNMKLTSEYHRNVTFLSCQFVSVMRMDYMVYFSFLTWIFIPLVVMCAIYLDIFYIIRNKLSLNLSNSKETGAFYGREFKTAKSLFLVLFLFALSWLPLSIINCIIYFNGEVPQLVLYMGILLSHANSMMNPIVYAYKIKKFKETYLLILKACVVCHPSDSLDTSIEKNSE

320 non-olfactory GPCRs [4] = target: 320 non-olfactory GPCRs (Homo sapiens, UniProt P21917)
Chain of 320 non-olfactory GPCRs (Homo sapiens, UniProt P21917) (P21917 whole entry): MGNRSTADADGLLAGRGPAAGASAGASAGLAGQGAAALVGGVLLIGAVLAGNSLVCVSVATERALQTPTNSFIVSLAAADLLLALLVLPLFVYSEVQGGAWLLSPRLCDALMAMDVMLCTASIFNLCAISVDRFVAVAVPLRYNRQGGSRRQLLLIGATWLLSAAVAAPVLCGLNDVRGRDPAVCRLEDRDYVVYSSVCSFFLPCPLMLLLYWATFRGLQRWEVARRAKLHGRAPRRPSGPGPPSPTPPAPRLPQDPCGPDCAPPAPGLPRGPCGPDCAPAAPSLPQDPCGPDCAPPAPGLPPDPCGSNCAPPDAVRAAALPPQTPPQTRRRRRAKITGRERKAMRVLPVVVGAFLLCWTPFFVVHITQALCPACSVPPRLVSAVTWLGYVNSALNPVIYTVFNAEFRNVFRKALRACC
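Also: compound tested at 1 µM final concentration.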

Chain of 320 non-olfactory GPCRs (Homo sapiens, UniProt P61073) (P61073 whole entry): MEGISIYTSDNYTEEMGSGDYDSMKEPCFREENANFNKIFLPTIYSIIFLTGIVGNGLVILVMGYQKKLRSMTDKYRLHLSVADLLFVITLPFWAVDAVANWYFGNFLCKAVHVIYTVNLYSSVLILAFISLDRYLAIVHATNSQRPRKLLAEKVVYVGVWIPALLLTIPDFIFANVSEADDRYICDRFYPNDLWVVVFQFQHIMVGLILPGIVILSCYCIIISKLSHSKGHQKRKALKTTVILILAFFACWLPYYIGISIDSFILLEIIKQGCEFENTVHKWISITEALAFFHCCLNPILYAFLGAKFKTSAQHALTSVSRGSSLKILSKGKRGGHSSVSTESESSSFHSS
T1 sequence (P48960 21-835): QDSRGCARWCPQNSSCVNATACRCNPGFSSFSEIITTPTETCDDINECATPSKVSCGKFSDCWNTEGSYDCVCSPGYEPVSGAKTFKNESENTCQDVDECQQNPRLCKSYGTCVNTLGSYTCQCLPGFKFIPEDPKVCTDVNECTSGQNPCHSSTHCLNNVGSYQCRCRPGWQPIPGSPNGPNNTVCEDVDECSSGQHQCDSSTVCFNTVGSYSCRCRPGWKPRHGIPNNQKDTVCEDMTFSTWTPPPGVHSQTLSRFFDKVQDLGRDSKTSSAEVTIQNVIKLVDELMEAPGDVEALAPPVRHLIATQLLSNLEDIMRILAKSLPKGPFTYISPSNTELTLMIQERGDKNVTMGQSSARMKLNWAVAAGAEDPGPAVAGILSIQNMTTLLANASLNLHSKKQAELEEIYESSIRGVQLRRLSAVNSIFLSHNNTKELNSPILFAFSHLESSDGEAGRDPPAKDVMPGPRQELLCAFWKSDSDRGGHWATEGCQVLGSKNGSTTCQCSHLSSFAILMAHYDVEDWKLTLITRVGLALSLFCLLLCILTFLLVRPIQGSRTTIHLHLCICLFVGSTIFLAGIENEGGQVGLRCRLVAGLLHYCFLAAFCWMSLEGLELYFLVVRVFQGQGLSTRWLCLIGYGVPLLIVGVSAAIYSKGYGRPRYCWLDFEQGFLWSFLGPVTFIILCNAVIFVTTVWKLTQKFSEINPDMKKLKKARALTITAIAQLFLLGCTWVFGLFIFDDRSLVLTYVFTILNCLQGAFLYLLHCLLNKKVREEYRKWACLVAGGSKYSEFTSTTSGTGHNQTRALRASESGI

SMILES: CCOc1cccc2cc(C(C)NCC3(O)CCCCC3)oc12 (stereo not shown) [O4LE6]
- Fold of Basal (320 non-olfactory GPCRs [1]): 0.9863 and 0.8615 and 0.8471 and 0.9066
- Fold of Basal (320 non-olfactory GPCRs [2]): 0.9696 and 0.6986 and 0.95 and 0.7013
- Fold of Basal (320 non-olfactory GPCRs [3]): 1.06 and 1.364 and 1.085 and 1.781
- Fold of Basal (320 non-olfactory GPCRs [4]): 1.429 and 1.1388 and 0.8668 and 1.288

Source: PMC7044277 (Nature Communications, 2020)
